Test results from PubChem BioAssay (NCI).
“And” between values parts separate entries of the source, which are not always exact repeats. Equal values may be shown once.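 How tested: cells in 96-well plates exposed to compound for 48 hours at five concentrations. GI50: concentration for 50% inhibition of growth. TGI: total growth inhibition.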

How the values were obtained:
Experiment in all cases: inhibition of tumour cell growth, NCI panel, 48 h
NCI/ADR-RES ovarian = test system: NCI/ADR-RES ovarian
MDA-MB-231 breast = test system: MDA-MB-231 breast
SR leukemia = test system: SR leukemia
IGROV1 ovarian = test system: IGROV1 ovarian
M14 melanoma = test system: M14 melanoma
NCI-H226 lung = test system: NCI-H226 lung
RPMI-8226 leukemia = test system: RPMI-8226 leukemia
CCRF-CEM leukemia = test system: CCRF-CEM leukemia
OVCAR-8 ovarian = test system: OVCAR-8 ovarian
A549 NSCLC = test system: A549 NSCLC
UACC-62 melanoma = test system: UACC-62 melanoma
DU-145 prostate = test system: DU-145 prostate

Row | SMILES | TGI (NCI/ADR-RES ovarian) [µM] | TGI (MDA-MB-231 breast) [µM] | TGI (SR leukemia) [µM] | TGI (IGROV1 ovarian) [µM] | TGI (M14 melanoma) [µM] | TGI (NCI-H226 lung) [µM] | TGI (RPMI-8226 leukemia) [µM] | TGI (CCRF-CEM leukemia) [µM] | TGI (OVCAR-8 ovarian) [µM] | TGI (A549 NSCLC) [µM] | TGI (UACC-62 melanoma) [µM] | TGI (DU-145 prostate) [µM] | GI50 (SR leukemia) [µM] | GI50 (RPMI-8226 leukemia)
1 | O=C1c2c(O)cccc2Cc2cc(CO)cc(O)c21 | 15.1 | 5.67 | 12.1 | 20.1 | 10.9 | 17.3 | 7.34 | > 100 | 12.8 | 9.08 | – | – | – | –
2 | CCOC(=O)c1ccn2c(c1)c(C#N)c1nc3ccccc3nc12 | – | – | > 100 | 59.8 | > 100 | – | > 100 | 68.4 | > 100 | > 100 | 25.7 | – | – | –
3 | COC(=O)[C@@H]1[C@H]2CC[C@]3(C)[C@@H](OC(C)=O)CC[C@H]3[C@@H]2CC[C@H]1C(C)=O | > 100 | > 100 | – | > 100 | > 100 | > 100 | > 100 | > 100 | > 100 | > 100 | > 100 | > 100 | – | –
4 | C[C@H]1S[C@H](c2c(F)cccc2F)n2c1nc1ccccc12 | > 100 | > 100 | – | > 100 | > 100 | > 100 | > 100 | > 100 | > 100 | > 100 | > 100 | > 100 | – | –
5 | O=C(O)CCC(NC(=O)c1ccc(CNc2nc3cc(C(F)(F)F)ccc3nc2C(=O)O)cc1)C(=O)O (stereo unspecified) | > 100 | – | > 100 | > 100 | > 100 | > 100 | – | > 100 | > 100 | > 100 | > 100 | > 100 | – | –
6 | COC1(C)CNCC(C)(C)NC(=O)C(C)(OC)CNCC(C)(C)NC1=O (stereo unspecified) | – | – | – | > 100 | > 100 | > 100 | > 100 | > 100 | > 100 | > 100 | > 100 | – | – | –
7 | O=C(CCN1CCCC1)c1ccc(Oc2ccc(F)cc2)cc1 | > 100 | > 100 | – | > 100 | 99.5 | > 100 | – | 46.7 | > 100 | > 100 | > 100 | > 100 | – | –
8 | COc1ccc2[nH]c3c(O)c(-c4c(C)cc5c([nH]c6ccc(OC)cc65)c4O)c(C)cc3c2c1 | 8.13 | 10.8 | 8.34 | 8.04 | 7.99 | 9.06 | 7.45 | – | 8.39 | 7.97 | – | 7.97 | 3.97 | 3.61 µM
9 | COC(=O)CNC(=O)CSc1nnc(COc2ccc(Cl)cc2)n1-c1ccccc1 | > 100 | 49.1 | – | 54 | > 100 | > 100 | – | > 100 | 92.9 | > 100 | > 100 | 33.6 | – | –
10 | COc1cc2cnc3c4cc(OC)c(OC(C)C)cc4ccc3c2cc1OC | – | – | > 100 | > 100 | > 100 | > 100 | > 100 | > 100 | > 100 | > 100 | > 100 | – | – | –
11 | CCOc1nc2sc3c(c2c(=O)n1CCSSCCn1c(OCC)nc2sc4c(c2c1=O)CCCC4)CCCC3 | > 100 | > 100 | > 100 | > 100 | > 100 | > 100 | > 100 | – | > 100 | > 100 | > 100 | > 100 | – | –
12 | COc1cc(/C=N/n2c(C)n[nH]c2=O)cc(OC)c1OC | > 100 | > 100 | – | – | > 100 | > 100 | – | > 100 | > 100 | > 100 | > 100 | – | – | –
13 | Cn1c(N)c(/C=C/C(=O)Oc2ccccc2)c(=O)n(C)c1=O | > 100 | > 100 | – | > 100 | > 100 | > 100 | > 100 | > 100 | > 100 | > 100 | > 100 | > 100 | – | –
14 | Cc1cc(S(=O)(=O)NC2=NCC(C)(C)CN2)c(S)cc1Cl | > 100 | > 100 | > 100 | > 100 | > 100 | 94.8 | – | – | 71.8 | 49.7 | 61.9 | > 100 | – | –
15 | COC(=O)/C(=N\N)C(C(=O)C(=O)Nc1nc(=S)[nH][nH]1)c1nc2ccc([N+](=O)[O-])cc2[nH]c1=O (stereo unspecified) | – | – | > 100 | > 100 | > 100 | > 100 | > 100 | > 100 | > 100 | > 100 | > 100 | – | – | –
16 | COc1ccc(C2=NN(C(=O)c3ccc(Cl)cc3)C(O)(c3cc(F)c(Cl)cc3Cl)C2)cc1 (stereo unspecified) | > 100 | > 100 | – | > 100 | > 100 | > 100 | > 100 | > 100 | > 100 | > 100 | > 100 | > 100 | – | –
17 | CC1N=C(c2ccccc2)OC1=O (stereo unspecified) | > 100 | > 100 | – | > 100 | > 100 | > 100 | > 100 | > 100 | > 100 | > 100 | > 100 | > 100 | – | –
18 | CC(=O)OC(C)c1cc2c(s1)C(=O)c1ccsc1C2=O (stereo unspecified) | 0.992 | – | 0.365 | 1.55 | 0.604 | 3.79 | 0.486 | 0.653 | 0.68 | 2.66 | 0.23 | 0.242 | – | –
19 | COc1cc2c(cc1OC)[C@H]1C(COC(=O)Nc3ccccc3)CN1CC2 (stereo partly specified) | – | – | > 100 | > 100 | > 100 | – | > 100 | > 100 | > 100 | > 100 | > 100 | – | – | –
20 | Cc1cc(C)c(C(=O)C(C)C(c2ccccc2)c2ccc(Cl)cc2)c(C)c1 (stereo unspecified) | – | – | > 100 | > 100 | > 100 | > 100 | > 100 | > 100 | > 100 | > 100 | > 100 | – | – | 82.4 µM and 29.3 µM
21 | N[C@H]1CCN(c2c(F)cc3c(=O)c(C(=O)O)cn4c3c2Oc2c-4ccc3c2ccc2ccccc23)C1 | > 100 | > 100 | > 100 | > 48.8 | > 100 | > 100 | 4.11 | – | > 100 | > 100 | > 100 | > 62.7 | 0.283 | –
